How the values were obtained:
[1] = molecular target: T1, preformed βA25-35 fibrils (Homo sapiens, UniProt P05067); assay: Electron microscopy analysis of the ability to dissolve preformed βA fibrils in vitro (βA25-35); type: biochemical; conditions: for ability to dissolve preformed βA25-35 fibrils: 10 μl tested compound mixed with 10 μl preformed fibrils, negative-staining electron microscopy immediately performed, Poly-L-Lysine 25 mg/ml, Polyethylene glycol 10 mg/ml, L-Lysine 1 M
T1 construct: 0.5 mg/ml for βA25-35 prepared in water or in PBS
Experimental: (§1) Aliquots of βA at a concentration of 1.5 mg/ml for both βA1-40 and βA1-42 and 0.5 mg/ml for βA25-35 prepared in water or in PBS, were incubated for 5 days at 37° C. At the end of the incubation period, 10 μl of βA solution were mixed with 10 μl of water for negative-staining electron microscopy analysis.
(§2) All compounds used to test the ability to dissolve preformed βA fibrils in vitro: Poly-L-Lysine, Polyethylene glycol and L-Lysine, were prepared in water and at a concentration of 25 mg/ml, 10 mg/ml and 1 M respectively. Then, 10 μl of tested compound were mixed with 10 μl of water for negative-staining electron microscopy analysis.
(§3) In order to evaluate the ability of compounds to dissolve preformed βA fibrils in vitro, 10 μl of tested compound were mixed with 10 μl of preformed βA fibrils and the negative-staining electron microscopy analysis was immediately performed.
(§4) Samples of tested compound, βA with or without tested compound were placed on carbon formar-coated 200-mesh nickel grids. The grids were stained for 5 minutes with 1% phosphotungstic acid and visualized on a Philips EM 401 electron microscope at 80 kV.

[2] = molecular target: T2, preformed βA1-40 fibrils (Homo sapiens, UniProt P05067); assay: Electron microscopy analysis of the ability to dissolve preformed βA fibrils in vitro (βA1-40); type: biochemical; conditions: data not shown
T2 construct: 1.5 mg/ml for both βA1-40 and βA1-42
Experimental: as §1, §2, §3, §4

T2 sequence (P05067 672-711): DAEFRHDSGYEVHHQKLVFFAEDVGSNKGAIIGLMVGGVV

## Cl.NCCCC[C@H](N)C(=O)O [L-Lysine, L-Lysine, monohydrochloride, reference compound]
[1]
  ability to dissolve preformed βA25-35 fibrils: not effective

## Poly-L-Lysine, hydrobomide
[1]
  ability to dissolve preformed βA25-35 fibrils: completely dissolved
[1]; in vitro, electron microscopy immediately after mixing
  speed of efficiency in dissolving preformed βA fibrils: instantaneous
[2]
  potential to dissolve preformed βA1-40 fibrils: also observed
